From patent publication US5998488A, “Ophthalmic composition” (Lion Corporation, priority 1994, dated 1999)
Where two headings read alike, the source gives them in different places.

Columns and labels:
[1] = tested on: Aspergillus nigar (A. nigar); assay: Antimicrobial test (preservative effectiveness test, USP), A. nigar; type: cell-based; conditions: benzalkonium chloride 0.01%
Protocol: (§1) The solutions of Experiment 1 were subject to an antimicrobial test.
(§2) Using bacteria Escherichia coli (E. coli), Pseudomonas aeruginosa (P. aeru), and Stapyrococcus aureus (S. aureus) and fungi Aspergillus nigar (A. nigar) and Candida albicans (Candida) as infectious microorganisms, a preservative effectiveness test was carried out according to the Pharmacopoeia of the United States.
(§3) ++: microorganisms died within 5 days
(§4) +: microorganisms died in 6-10 days
(§5) -:microorganisms died in 11-15 days or over 15 days

[2] = tested on: E. coli, P. aeru, S. aureus, A. nigar, Candida; assay: Antimicrobial test (preservative effectiveness test, USP), microorganism type not specified; type: cell-based; conditions: α-cyclodextrin 0.03% or more
Protocol: as §2, §3, §4, §5
Solutions were prepared in accordance with the formulation shown in Experiment 1 in a conventional manner as used in the preparation of eye drops while the amount of disodium ethylenediaminetetraacetate (EDTA-2Na) blended was in the range of 0.002 to 0.3%. The solutions were subject to the antimicrobial test of Experiment 3 and evaluated for antimicrobial activity according to the same criterion as above.
Solutions of the following formulation were prepared in a conventional manner as used in the preparation of eye drops.
The solutions were subject to the antimicrobial test of Experiment 3 and evaluated for antimicrobial activity according to the same criterion as above.
Solutions of the formulation shown in Table 7 were prepared to a total amount of 1,000 g in a conventional manner as used in the preparation of eye drops. […] The ophthalmic solutions were subject to the same tests as in Experiments 1 and 3. In the test of Experiment 3, the ophthalmic solutions were evaluated for antimicrobial activity according to the same criterion as before.

[3] = Benzalkonium chloride adsorption test (soft contact lens Seequence); type: physicochemical; conditions: benzalkonium chloride 0.01%, 25° C., 24 hours
Protocol: (§6) A test was conducted to examine the inhibition of benzalkonium chloride adsorption to soft contact lenses. Solutions of the following formulation were prepared in a conventional manner as used in the preparation of eye drops.
(§7) The percent inhibition of benzalkonium chloride adsorption to commercially available soft contact lenses was determined by the following test.
(§8) Benzalkonium chloride adsorption test A 30-ml vial was charged with 10 ml of the solution and a soft contact lens was immersed therein. In a constant temperature tank at 25° C., the vial was shaken for 24 hours. After the contact lens was removed from the vial, the concentration of benzalkonium chloride in the solution was quantitatively determined by high performance liquid chromatography. A percent inhibition of adsorption was calculated according to the following formula.
(§9) As a control, the above procedure was repeated except that no contact lens was immersed.
(§10) Inhibition of adsorption (%)=(concentration of benzalkonium chloride in sample solution)/(concentration of benzalkonium chloride in control solution)×100
(§11) Note that Seequence, Nichicon Soft and Menicon Soft are trademarks of soft contact lenses commercially available from Bausch & Lomb, Nihon Contact K.K., and Menicon K.K., respectively.

[4] = type: physicochemical; conditions: 6 months at 50° C.
Protocol: […] More specifically, solutions were prepared in accordance with the formulation shown in Experiment 1 while the amount of α-cyclodextrin mixed was in the range of 0.03 to 2%.

[5] = tested on: Candida albicans (Candida); assay: Antimicrobial test (preservative effectiveness test, USP), Candida; type: cell-based; conditions: benzalkonium chloride 0.01%
Protocol: as §1, §2, §3, §4, §5

[6] = tested on: Stapyrococcus aureus (S. aureus); assay: Antimicrobial test (preservative effectiveness test, USP), S. aureus; type: cell-based; conditions: benzalkonium chloride 0.01%
Protocol: as §1, §2, §3, §4, §5

[7] = Benzalkonium chloride adsorption test (soft contact lens Nichicon Soft μ); type: physicochemical; conditions: benzalkonium chloride 0.01%, 25° C., 24 hours
Protocol: as §6, §7, §8, §9, §10, §11

[8] = Benzalkonium chloride adsorption test (soft contact lenses, lens not given); type: physicochemical; conditions: concentration of at least 0.03%
Protocol: as §7, §8, §9, §10
Solutions of the formulation shown in Table 7 were prepared to a total amount of 1,000 g in a conventional manner as used in the preparation of eye drops. Ophthalmic solutions of Examples 2 to 13 were obtained. The ophthalmic solutions were subject to the same tests as in Experiments 1 and 3. In the test of Experiment 3, the ophthalmic solutions were evaluated for antimicrobial activity according to the same criterion as before.

[9] = tested on: Pseudomonas aeruginosa (P. aeru); assay: Antimicrobial test (preservative effectiveness test, USP), P. aeru; type: cell-based; conditions: benzalkonium chloride 0.01%
Protocol: as §1, §2, §3, §4, §5

[10] = tested on: Escherichia coli (E. coli); assay: Antimicrobial test (preservative effectiveness test, USP), E. coli; type: cell-based; conditions: benzalkonium chloride 0.01%
Protocol: as §1, §2, §3, §4, §5

[11] = Benzalkonium chloride adsorption test (soft contact lens Menicon Soft 72); type: physicochemical; conditions: benzalkonium chloride 0.01%, 25° C., 24 hours
Protocol: as §6, §7, §8, §9, §10, §11

SMILES: OC[C@H]1O[C@@H]2O[C@H]3[C@H](O)[C@@H](O)[C@@H](O[C@H]4[C@H](O)[C@@H](O)[C@@H](O[C@H]5[C@H](O)[C@@H](O)[C@@H](O[C@H]6[C@H](O)[C@@H](O)[C@@H](O[C@H]7[C@H](O)[C@@H](O)[C@@H](O[C@H]1[C@H](O)[C@H]2O)O[C@@H]7CO)O[C@@H]6CO)O[C@@H]5CO)O[C@@H]4CO)O[C@@H]3CO [α-cyclodextrin]
- Antimicrobial activity ([1]; α-cyclodextrin 0.01%): + (microorganisms died in 6-10 days)
- Antimicrobial activity ([1]; α-cyclodextrin 0.02%): + (microorganisms died in 6-10 days)
- Antimicrobial activity ([1]; α-cyclodextrin 0.03%): - (microorganisms died in 11-15 days or over 15 days)
- Antimicrobial activity ([1]; α-cyclodextrin 0.05%): - (microorganisms died in 11-15 days or over 15 days)
- Antimicrobial activity ([1]; α-cyclodextrin 0.1%): - (microorganisms died in 11-15 days or over 15 days)
- Antimicrobial activity ([1]; α-cyclodextrin 0.2%): - (microorganisms died in 11-15 days or over 15 days)
- Antimicrobial activity ([1]; α-cyclodextrin 0.3%): - (microorganisms died in 11-15 days or over 15 days)
- Antimicrobial activity of solution containing benzalkonium chloride (in words) [2]: significantly reduced in antimicrobial activity
- Inhibition of adsorption ([3]; α-cyclodextrin 0.01%): 88%
- Inhibition of adsorption ([3]; α-cyclodextrin 0.02%): 92%
- Inhibition of adsorption ([3]; α-cyclodextrin 0.03%): 100%
- Inhibition of adsorption ([3]; α-cyclodextrin 0.05%): 100%
- Inhibition of adsorption ([3]; α-cyclodextrin 0.1%): 100%
- Inhibition of adsorption ([3]; α-cyclodextrin 0.2%): 100%
- Inhibition of adsorption ([3]; α-cyclodextrin 0.3%): 100%
- Stability ([4]; α-cyclodextrin 0.03%): .largecircle.
- Stability ([4]; α-cyclodextrin 0.5%): .largecircle.
- Stability ([4]; α-cyclodextrin 1%): Δ
- Antimicrobial activity ([5]; α-cyclodextrin 0.01%): + (microorganisms died in 6-10 days)
- Antimicrobial activity ([5]; α-cyclodextrin 0.02%): + (microorganisms died in 6-10 days)
- Antimicrobial activity ([5]; α-cyclodextrin 0.03%): - (microorganisms died in 11-15 days or over 15 days)
- Antimicrobial activity ([5]; α-cyclodextrin 0.05%): - (microorganisms died in 11-15 days or over 15 days)
- Antimicrobial activity ([5]; α-cyclodextrin 0.1%): - (microorganisms died in 11-15 days or over 15 days)
- Antimicrobial activity ([5]; α-cyclodextrin 0.2%): - (microorganisms died in 11-15 days or over 15 days)
- Antimicrobial activity ([5]; α-cyclodextrin 0.3%): - (microorganisms died in 11-15 days or over 15 days)
- Antimicrobial activity ([6]; α-cyclodextrin 0.01%): + (microorganisms died in 6-10 days)
- Antimicrobial activity ([6]; α-cyclodextrin 0.02%): + (microorganisms died in 6-10 days)
- Antimicrobial activity ([6]; α-cyclodextrin 0.03%): - (microorganisms died in 11-15 days or over 15 days)
- Antimicrobial activity ([6]; α-cyclodextrin 0.05%): - (microorganisms died in 11-15 days or over 15 days)
- Antimicrobial activity ([6]; α-cyclodextrin 0.1%): - (microorganisms died in 11-15 days or over 15 days)
- Antimicrobial activity ([6]; α-cyclodextrin 0.2%): - (microorganisms died in 11-15 days or over 15 days)
- Antimicrobial activity ([6]; α-cyclodextrin 0.3%): - (microorganisms died in 11-15 days or over 15 days)
- Inhibition of adsorption ([7]; α-cyclodextrin 0.01%): 87%
- Inhibition of adsorption ([7]; α-cyclodextrin 0.02%): 93%
- Inhibition of adsorption ([7]; α-cyclodextrin 0.03%): 100%
- Inhibition of adsorption ([7]; α-cyclodextrin 0.05%): 100%
- Inhibition of adsorption ([7]; α-cyclodextrin 0.1%): 100%
- Inhibition of adsorption ([7]; α-cyclodextrin 0.2%): 100%
- Inhibition of adsorption ([7]; α-cyclodextrin 0.3%): 100%
- Inhibition of adsorption of benzalkonium chloride to soft contact lenses (in words) [8]: The inhibition effect is remarkable
- Antimicrobial activity ([9]; α-cyclodextrin 0.01%): + (microorganisms died in 6-10 days)
- Antimicrobial activity ([9]; α-cyclodextrin 0.02%): + (microorganisms died in 6-10 days)
- Antimicrobial activity ([9]; α-cyclodextrin 0.03%): - (microorganisms died in 11-15 days or over 15 days)
- Antimicrobial activity ([9]; α-cyclodextrin 0.05%): - (microorganisms died in 11-15 days or over 15 days)
- Antimicrobial activity ([9]; α-cyclodextrin 0.1%): - (microorganisms died in 11-15 days or over 15 days)
- Antimicrobial activity ([9]; α-cyclodextrin 0.2%): - (microorganisms died in 11-15 days or over 15 days)
- Antimicrobial activity ([9]; α-cyclodextrin 0.3%): - (microorganisms died in 11-15 days or over 15 days)
- Antimicrobial activity ([10]; α-cyclodextrin 0.01%): + (microorganisms died in 6-10 days)
- Antimicrobial activity ([10]; α-cyclodextrin 0.02%): + (microorganisms died in 6-10 days)
- Antimicrobial activity ([10]; α-cyclodextrin 0.03%): - (microorganisms died in 11-15 days or over 15 days)
- Antimicrobial activity ([10]; α-cyclodextrin 0.05%): - (microorganisms died in 11-15 days or over 15 days)
- Antimicrobial activity ([10]; α-cyclodextrin 0.1%): - (microorganisms died in 11-15 days or over 15 days)
- Antimicrobial activity ([10]; α-cyclodextrin 0.2%): - (microorganisms died in 11-15 days or over 15 days)
- Antimicrobial activity ([10]; α-cyclodextrin 0.3%): - (microorganisms died in 11-15 days or over 15 days)
- Inhibition of adsorption ([11]; α-cyclodextrin 0.01%): 88%
- Inhibition of adsorption ([11]; α-cyclodextrin 0.02%): 92%
- Inhibition of adsorption ([11]; α-cyclodextrin 0.03%): 100%
- Inhibition of adsorption ([11]; α-cyclodextrin 0.05%): 100%
- Inhibition of adsorption ([11]; α-cyclodextrin 0.1%): 100%
- Inhibition of adsorption ([11]; α-cyclodextrin 0.2%): 100%
- Inhibition of adsorption ([11]; α-cyclodextrin 0.3%): 100%
